How the values were obtained:
[1] = tested on: GSTs in mouse liver cytosol
[2] = tested on: cytosolic fraction of mouse liver lysate; format: binding; conditions: increasing probe concentrations; SDS-PAGE
Procedure: FIG. 15B show results from labeling glutathione transferase (GSH and GST) with probe embodiments described herein using 1 μM mouse liver cytosol.
(§1) Concentration dependent labeling of a recombinant GST (FIG. 15A) was evaluated. The two probe embodiments, GSH-ABP-G and GST-ABP-H, were applied with increasing concentrations to the recombinant human GSTM1, a GST isoenzyme that is highly expressed in mammalian liver. […] Both probes were then applied with increasing concentrations to the cytosolic fraction of mouse liver lysate to further test probe targeting (FIG. 15B). Both probes strongly label two distinct bands at 24 kDa. The lower band is likely GSTP1, a 23.6 kDa protein highly abundant in the liver. […] To determine the specific GST isoforms targeted by each probe, LC-MS based proteomics analyses of mouse liver labeling, and labeling in the presence of specific inhibitors were performed (FIGS. 16A and 16B). […] 27 probe-targeted proteins were determined to be statistically significant targets of the GSH-ABP-G probe embodiment at a fold-change of 3 over no UV exposure controls. Of these 27 proteins, 8 are known GSTs and include members of mu, alpha, pi, theta, kappa, and zeta classes. The remaining proteins include five proteins with known GSH binding, one with known antioxidant and drug binding activity, and five proteins highly abundant in liver with no known GSH binding activity. […]

[3] = tested on: GST isoenzymes in lung lysate; assay: LC-MS proteomics of probe-enriched mouse lung lysate; format: binding
recombinant human GSTM1 = molecular target: T1, recombinant human GSTM1 (Homo sapiens, UniProt P09488); assay: Concentration-dependent probe labeling of recombinant GST (SDS-PAGE); format: binding; conditions: increasing probe concentrations, 30 minutes incubation, rhodamine click
T1 sequence (P09488 1-218): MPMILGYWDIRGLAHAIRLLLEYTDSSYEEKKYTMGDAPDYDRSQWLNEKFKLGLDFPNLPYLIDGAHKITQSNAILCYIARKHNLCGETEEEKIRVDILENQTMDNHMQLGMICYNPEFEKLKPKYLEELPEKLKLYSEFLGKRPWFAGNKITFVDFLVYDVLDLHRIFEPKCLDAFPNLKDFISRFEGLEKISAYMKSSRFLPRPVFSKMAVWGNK
Procedure: FIG. 15A show results from labeling glutathione transferase (GSH and GST) with probe embodiments described herein using 1 μM recombinant human GSTm1.
as §1

gut microbiota = format: in vivo, mouse; conditions: vancomycin in drinking water 0.1 mg/mL
[4] = tested on: glucuronidase activity in the gut microbiome; format: in vivo, mouse; conditions: vancomycin in drinking water 0.1 mg/mL; 4 of 5 sets of litter mates
Procedure: For the glucuronidase studies, female C57BL/6J mice age 6-8 weeks were purchased from Jackson Laboratories and housed with a 12 hour light/12 hour dark light cycle. Food (PMI 5002) and water were provided ad libitum. Mice were acclimated for 7 days prior to the onset of any treatment. During this time, littermates were co-housed. After this time, mice were placed in separate cages for antibiotic treatment. One set of littermates (n=5) were exposed to vancomycin in drinking water (0.1 mg/mL). The other set were given normal water. To monitor for adverse reactions to the antibiotics, researchers could not be blinded to treatment group during exposure, and were not blinded during subsequent analysis.
Microbial cells from the mouse gut were suspended in PBS with protease inhibitor (cOmplete EDTA-free Protease Inhibitor, Roche) and lysed via bead beating (Bullet Blender). 4-methylumbelliferyl-s-D-glucuronide (4-MUG; 1 mM) was added to 50 μL lysate (0.9 μg total protein) to achieve a final concentration of 500 μM. […] Fluorescence was measured using a plate reader (Molecular Biosciences), and amount of hydrolyzed substrate was calculated relative to a standard curve. Rate (mM/s) was determined via linear regression (GraphPad Prism) and activity was calculated as rate per μg protein. […]

[5] = tested on: GSTs (H site) in mouse liver cytosol; conditions: read-out: EC50 of inhibition of GST-ABP-H probe labeling, 10 μM probe
[6] = 10 μM probe, mouse liver cytosol

| number of GST isoenzymes enriched by probe in lung lysate [3] | labeling of recombinant human GSTM1 (recombinant human GSTM1) | SMILES | number of GSTs enriched by probe in mouse liver [1, 6] | selectivity of labeling in mouse liver cytosol [2] | further results |
| --- | --- | --- | --- | --- | --- |
| 11 | concentration-dependent targeting | C#CCCCC(=O)Nc1cccc2c1C(=O)C(Cl)=C(Cl)C2=O [GST-ABP-H, N-(6,7-dichloro-5,8-dioxo-5,8-dihydronaphthalen-1-yl)hex-5-ynamide] | 12 | more susceptible to off-target labeling | – |
| 3 | concentration-dependent targeting | C#CCNC(=O)C(Cc1ccc(C(=O)c2ccccc2)cc1)NC(=O)CSCC(NC(=O)CC[C@H](N)C(=O)O)C(=O)NCC(=O)O (some centres unmarked) [GSH-ABP-G, N5-(3-((2-((3-(4-benzoylphenyl)-1-oxo-1-(prop-2-yn-1-ylamino)propan-2-yl)amino)-2-oxoethyl)thio)-1-((carboxymethyl)amino)-1-oxopropan-2-yl)glutamine] | 8 | high selectivity | number of statistically significant probe-targeted proteins ([1]; fold-change of 3 over no UV exposure controls, 10 μM probe): 27 |
| – | – | CN[C@H](CC(C)C)C(=O)N[C@H]1C(=O)N[C@@H](CC(N)=O)C(=O)N[C@H]2C(=O)N[C@H]3C(=O)N[C@H](C(=O)N[C@H](C(=O)O)c4cc(O)cc(O)c4-c4cc3ccc4O)[C@H](O)c3ccc(c(Cl)c3)Oc3cc2cc(c3O[C@@H]2O[C@H](CO)[C@@H](O)[C@H](O)[C@H]2O[C@H]2C[C@](C)(N)[C@H](O)[C@H](C)O2)Oc2ccc(cc2Cl)[C@H]1O [Vancomycin] | – | – | relative abundance of Firmicutes in gut microbiota (gut microbiota): dramatically decreased; glucuronidase activity in gut microbiome after treatment [4]: reduced, but did not eliminate |
| – | – | CCN1C(=O)C=CC1=O [N-ethylmaleimide, reference compound] | – | – | competition of GST-ABP-H labeling (proteomic analysis) ([1]; competitor 100 μM, mouse liver cytosol): failed to compete for binding of most GST isoenzymes |
| – | – | CCCCCCSC[C@H](NC(=O)CC[C@H](N)C(=O)O)C(=O)NCC(=O)O [S-hexylglutathione, reference compound] | – | – | fold change inhibition of GST-ABP-H and GSH-ABP-G labeling of GSTA3, M1, and P1 ([1]; S-hexylglutathione competed liver cytosol, p≤0.05): > 3.0; EC50 [5]: 41.5 µM |
